Reference: article PMC10165273, “Itch receptor MRGPRX4 interacts with the receptor activity–modifying proteins” (The Journal of Biological Chemistry, 2023)
Values joined by “and” are separate entries in the source; they are usually repeats but may differ in a detail not shown here. Identical values can stand only once.

Target: T1, MRGPRX4 (Homo sapiens, UniProt Q96LA9)
T1 construct: expressed in transfected cells; host or cells: HEK293T
Test: BRET2 β-arrestin2 recruitment to MRGPRX4
Assay type: cell-based
Conditions: for BRET2 ratio: Fig 5c, MRGPRX4, 100μM ligand
Excerpt: The method for homogenous transfection of β-Arrestin and BRET^2 assay of β-Arrestin recruitment has been described previously ([51]). […] BRET^2 measurements were taken on the BioTek Synergy NEO2 microplate reader.
For MRGPRX4 DNA titration assays, HEK293T cells were cotransfected with either β-Arrestin1 or β-Arrestin2 with increasing amounts of MRGPRX4 (0.5, 1, or 2 pg/cell).
To measure the time-course of β-Arrestin2 recruitment to MRGPRX4 and CALCRL, the transfection and general procedure described above was followed, with the modification that Prolume Purple was added first, followed by addition of the appropriate agonists ([51]).
The BRET ratio for each sample was determined by calculating the ratio of the light intensity emitted by the GFP10 (515 nm) (acceptor) over the light intensity emitted by the RLuc3 (395 nm) (donor). Net BRET^2 was determined by subtracting the basal BRET^2 (β-arrestin-RLuc3 only) signal from the BRET^2 signals. All BRET values were normalized to the MRGPRX4-only condition.

[1] = MRGPRX4-GFP10 BRET2 time-course, 100 µM (Fig. 5)

T1 sequence (Q96LA9 whole entry): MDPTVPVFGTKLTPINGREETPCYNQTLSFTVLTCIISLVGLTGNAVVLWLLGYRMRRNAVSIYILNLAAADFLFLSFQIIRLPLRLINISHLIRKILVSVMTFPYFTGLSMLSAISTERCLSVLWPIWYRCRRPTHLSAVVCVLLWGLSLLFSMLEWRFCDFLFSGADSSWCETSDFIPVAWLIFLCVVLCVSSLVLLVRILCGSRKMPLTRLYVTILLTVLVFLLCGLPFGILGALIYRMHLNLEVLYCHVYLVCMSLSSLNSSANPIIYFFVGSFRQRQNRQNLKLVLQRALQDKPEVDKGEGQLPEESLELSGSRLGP

## CC(C)[C@H]1CC[C@H](C(=O)N[C@H](Cc2ccccc2)C(=O)O)CC1 [Nateglinide]
Fig 5b, βArr2 only, 0 pg MRGPRX4 DNA/cell, 100µM ligand, replicate values, listed as Ng
  net BRET2 ratio, βArr2 recruitment: 0.0002584 and -0.0001954 and -6.2982e-5 and -0.0001775 and 0.0006514 and -0.0004739 and -9.3811e-5 and 0.0004305 and -0.0003367 and -6.4621e-5 and -0.0005147 and 0.0005793 and -0.0001286 and 0.0001629 and -3.4338e-5 and 0.0006863 and -0.0005797 and -0.0001066 and -6.7124e-5 and 1.05e-5 and 5.6622e-5 and 0.0001307 and -0.0006572 and 0.0005265 and 0.0006391 and 0.0003062 and -0.0009453
60 s, listed as Ng
  BRET2 ratio: 0.01411 and 0.01234 and 0.0129
120 s, listed as Ng
  BRET2 ratio: 0.01624 and 0.01368 and 0.01342
180 s, listed as Ng
  BRET2 ratio: 0.01716 and 0.01419 and 0.01539
240 s, listed as Ng
  BRET2 ratio: 0.01732 and 0.01509 and 0.01494
300 s, listed as Ng
  BRET2 ratio: 0.01643 and 0.01468 and 0.01593
360 s, listed as Ng
  BRET2 ratio: 0.01701 and 0.01469 and 0.01434
420 s, listed as Ng
  BRET2 ratio: 0.01667 and 0.01531 and 0.01417
480 s, listed as Ng
  BRET2 ratio: 0.01658 and 0.0139 and 0.01409
540 s, listed as Ng
  BRET2 ratio: 0.01614 and 0.01397 and 0.01412
600 s, listed as Ng
  BRET2 ratio: 0.01601 and 0.01404 and 0.013
660 s, listed as Ng
  BRET2 ratio: 0.0171 and 0.01418 and 0.0126
720 s, listed as Ng
  BRET2 ratio: 0.01525 and 0.01442 and 0.01263
780 s, listed as Ng
  BRET2 ratio: 0.01511 and 0.01318 and 0.01349
840 s, listed as Ng
  BRET2 ratio: 0.01493 and 0.01394 and 0.01155
900 s, listed as Ng
  BRET2 ratio: 0.01482 and 0.01445 and 0.01282
960 s, listed as Ng
  BRET2 ratio: 0.01446 and 0.01322 and 0.01117
1020 s, listed as Ng
  BRET2 ratio: 0.01461 and 0.01265 and 0.01275
1080 s, listed as Ng
  BRET2 ratio: 0.01404 and 0.01402 and 0.01514
1140 s, listed as Ng
  BRET2 ratio: 0.01394 and 0.01316 and 0.01206
1200 s, listed as Ng
  BRET2 ratio: 0.01452 and 0.0141 and 0.01263
1260 s, listed as Ng
  BRET2 ratio: 0.01409 and 0.01389 and 0.01057
1320 s, listed as Ng
  BRET2 ratio: 0.01336 and 0.01334 and 0.0149
1380 s, listed as Ng
  BRET2 ratio: 0.01171 and 0.01208 and 0.01329
MRGPRX4, 100μM Ng
  normalized β-arrestin2 recruitment BRET2 signal (Figure 5f): 1
[1]
  Kfast: 0.008519
  Kslow: 0.002534
  Rate constant ratio: 3.361
  Tau (fast): 117.4
  Tau (slow): 394.6
  two-phase decay Plateau: 0.004639
  two-phase decay x0: 56.70
  two-phase decay y0: 0.01291
Time course (Fig. 5C)
  time of peak β-arrestin2 recruitment to MRGPRX4: 3 min
